The test addresses T1, Integrin alpha-4/beta-7 (Homo sapiens, UniProt P13612+P26010).
T1 sequence (P13612 whole entry): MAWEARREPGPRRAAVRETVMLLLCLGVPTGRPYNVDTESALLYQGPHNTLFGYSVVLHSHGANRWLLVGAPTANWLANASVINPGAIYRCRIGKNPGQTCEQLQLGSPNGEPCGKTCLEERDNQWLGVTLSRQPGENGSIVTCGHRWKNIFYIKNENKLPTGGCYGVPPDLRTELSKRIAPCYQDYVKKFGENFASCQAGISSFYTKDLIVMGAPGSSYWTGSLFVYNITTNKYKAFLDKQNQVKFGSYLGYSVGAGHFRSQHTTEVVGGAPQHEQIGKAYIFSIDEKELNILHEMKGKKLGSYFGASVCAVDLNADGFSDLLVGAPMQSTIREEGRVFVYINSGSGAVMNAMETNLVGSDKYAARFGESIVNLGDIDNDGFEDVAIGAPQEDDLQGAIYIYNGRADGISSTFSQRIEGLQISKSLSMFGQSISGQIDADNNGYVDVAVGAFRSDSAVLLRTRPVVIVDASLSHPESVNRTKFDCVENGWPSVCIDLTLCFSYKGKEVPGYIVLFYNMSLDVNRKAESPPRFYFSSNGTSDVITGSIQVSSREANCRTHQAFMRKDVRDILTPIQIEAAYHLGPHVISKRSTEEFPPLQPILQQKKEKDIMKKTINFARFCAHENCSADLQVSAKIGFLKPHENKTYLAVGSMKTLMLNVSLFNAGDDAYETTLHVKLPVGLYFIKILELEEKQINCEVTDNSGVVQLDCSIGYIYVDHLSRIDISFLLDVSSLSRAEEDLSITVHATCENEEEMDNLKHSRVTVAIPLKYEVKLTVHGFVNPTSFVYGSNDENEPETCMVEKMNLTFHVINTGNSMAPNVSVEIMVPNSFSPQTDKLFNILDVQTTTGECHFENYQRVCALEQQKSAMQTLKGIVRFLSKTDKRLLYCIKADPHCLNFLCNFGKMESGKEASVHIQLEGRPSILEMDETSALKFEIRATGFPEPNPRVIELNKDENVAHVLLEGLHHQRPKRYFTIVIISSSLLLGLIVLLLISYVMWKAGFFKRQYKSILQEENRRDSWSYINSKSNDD
T1 sequence (P26010 whole entry): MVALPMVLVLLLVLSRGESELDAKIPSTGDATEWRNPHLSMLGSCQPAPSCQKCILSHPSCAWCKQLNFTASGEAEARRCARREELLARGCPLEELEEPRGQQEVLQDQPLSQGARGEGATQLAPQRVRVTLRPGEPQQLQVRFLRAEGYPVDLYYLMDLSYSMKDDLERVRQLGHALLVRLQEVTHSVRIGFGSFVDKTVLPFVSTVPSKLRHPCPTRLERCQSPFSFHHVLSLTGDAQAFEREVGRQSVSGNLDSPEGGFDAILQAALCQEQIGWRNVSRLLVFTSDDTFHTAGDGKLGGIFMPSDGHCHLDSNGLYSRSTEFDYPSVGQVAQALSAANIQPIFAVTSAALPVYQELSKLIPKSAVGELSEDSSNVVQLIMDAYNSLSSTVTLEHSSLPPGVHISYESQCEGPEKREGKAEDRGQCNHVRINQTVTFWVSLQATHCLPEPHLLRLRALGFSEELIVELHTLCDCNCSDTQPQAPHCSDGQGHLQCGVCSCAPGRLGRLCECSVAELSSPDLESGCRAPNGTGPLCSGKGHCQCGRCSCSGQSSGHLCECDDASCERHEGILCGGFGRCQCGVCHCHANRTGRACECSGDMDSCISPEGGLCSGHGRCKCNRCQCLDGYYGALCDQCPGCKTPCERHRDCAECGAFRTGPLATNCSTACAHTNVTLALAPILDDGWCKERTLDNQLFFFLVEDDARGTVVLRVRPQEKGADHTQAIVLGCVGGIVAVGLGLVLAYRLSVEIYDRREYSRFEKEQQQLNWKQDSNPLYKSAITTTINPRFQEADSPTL
Put plainly: alpha-4 beta-7 Integrin Cell Capture Assay. As for the experimental part: The potency of inhibitors in preventing α4β7 integrin interaction with MadCAM-1 was measured by monitoring the capture of α4β7 integrin expressing cells on a recombinant MadCAM-1 extracellular domain-coated plate. 384-Well plates (Corning 3702) were coated with MadCAM-1 extracellular domain by dispensing 20 μL of MAdCAM-1 at 1.0 μg/mL per well and incubating overnight at 4° C. The plates were then washed with PBS and blocked with 3% BSA for 2 hours before being washed again.

The source of these data is BindingDB's records for patent US11116760 (Gilead Sciences, 2021).

In turn, `Cc1cc2c(=O)n(-c3ccc(C[C@H](NC(=O)c4c(F)cc(N5CCOC[C@@H]5C(F)(F)F)cc4F)C(=O)O)c4cccnc34)c(=O)n(C)c2cn1` [US11116760, Example 424] yielded an EC50 of 0.15 nM.

Molecule `Cc1nc(-c2ccc(C[C@H](NC(=O)c3c(F)cc(N4CCOC[C@@H]4C(F)(F)F)cc3Cl)C(=O)O)c3cccnc23)c(=O)n(C)c1C` [US11116760, Example 454] showed an EC50 of 0.14 nM.

As usually defined, the EC50 is the concentration at which the effect is half-maximal.
